Assay results reported in publication PMC10342533, “Novel Tetrazole Derivatives Targeting Tubulin Endowed with Antiproliferative Activity against Glioblastoma Cells” (International Journal of Molecular Sciences, 2023).
Values after ≈ are worked out from the molar mass of the structure shown.

How the values were obtained:
[1] = system: T98G (temozolomide resistant glioblastoma); test: Cell growth inhibition, MTT assay, T98G; type: cell-based; conditions: Homo sapiens
Protocol: (§1) The ability of the synthesized compounds to inhibit the cell proliferation of human cancer cell lines was assayed by measuring cell viability through the use of the MTT method 72 h after treatment. For this purpose, representative cell lines of the most frequent kinds of cancer were selected, including the following: HeLa (cervix epithelioid carcinoma), MCF7 (breast adenocarcinoma), U87 MG (glioblastoma), T98G (temozolomide resistant glioblastoma), HepG2 (hepatocellular carcinoma), HCT8 (colorectal carcinoma), and HT-29 (colon adenocarcinoma).
(§2) The cell lines were obtained from ATTC (Manassas, VA, USA). […] The cells were periodically tested for Mycoplasma infection by using a MycoAlert kit (Lonza, Norwest, Australia), and only Mycoplasma-free cells were used in the experiments.
(§3) Then, every compound was added (10 µL/well) to a final concentration of 10 µM. Untreated cells were used as negative controls. The antiproliferative activity of compounds was measured 72 h after drug exposure through the MTT assay. […] For this purpose, compounds were used at different concentrations, ranging from 10^−10 to 10^−2 M. Measurements were performed in triplicate, and each experiment was repeated three times. The IC50 values were determined using Origin software (version 9.6, OriginLab, Washington, DC, USA).

[2] = system: HCT8 (colorectal carcinoma); test: Cell growth inhibition, MTT assay, HCT8; type: cell-based; conditions: Homo sapiens
Protocol: as §1, §2, §3

[3] = system: HEK-293 (embryonic kidney); test: Cell growth inhibition, MTT assay, non-tumor HEK-293; type: cell-based; conditions: Homo sapiens
Protocol: The ability of the synthesized compounds to inhibit the cell proliferation of human cancer cell lines was assayed by measuring cell viability through the use of the MTT method 72 h after treatment. For this purpose, representative cell lines of the most frequent kinds of cancer were selected, including the following: HeLa (cervix epithelioid carcinoma), MCF7 (breast adenocarcinoma), U87 MG (glioblastoma), T98G (temozolomide resistant glioblastoma), HepG2 (hepatocellular carcinoma), HCT8 (colorectal carcinoma), and HT-29 (colon adenocarcinoma). […] The compounds were also tested against the non-tumor HEK-293 cells to study their selectivity toward cancer cells. […] The cell lines were obtained from ATTC (Manassas, VA, USA). […] The cells were periodically tested for Mycoplasma infection by using a MycoAlert kit (Lonza, Norwest, Australia), and only Mycoplasma-free cells were used in the experiments. […] Louis, MO, USA), which was dissolved in PBS at 5 mg/mL in accordance with the manufacturer's instructions. […] Untreated cells were used as negative controls. The antiproliferative activity of compounds was measured 72 h after drug exposure through the MTT assay. […] For this purpose, compounds were used at different concentrations, ranging from 10^-10 to 10^-2 M. Measurements were performed in triplicate, and each experiment was repeated three times. The IC50 values were determined using Origin software (version 9.6, OriginLab, Washington, DC, USA).

[4] = biological target: T1, microtubular protein isolated from calf brains (bovine brain tubulin) (Bos taurus, UniProt P81947+Q6B856); test: Tubulin polymerization inhibition (TPI); type: biochemical; conditions: in vitro tubulin polymerization, mean ± SD
T1 construct: from tissue; host or cells: calf (bovine) brain
T1 sequence (Q6B856 whole entry): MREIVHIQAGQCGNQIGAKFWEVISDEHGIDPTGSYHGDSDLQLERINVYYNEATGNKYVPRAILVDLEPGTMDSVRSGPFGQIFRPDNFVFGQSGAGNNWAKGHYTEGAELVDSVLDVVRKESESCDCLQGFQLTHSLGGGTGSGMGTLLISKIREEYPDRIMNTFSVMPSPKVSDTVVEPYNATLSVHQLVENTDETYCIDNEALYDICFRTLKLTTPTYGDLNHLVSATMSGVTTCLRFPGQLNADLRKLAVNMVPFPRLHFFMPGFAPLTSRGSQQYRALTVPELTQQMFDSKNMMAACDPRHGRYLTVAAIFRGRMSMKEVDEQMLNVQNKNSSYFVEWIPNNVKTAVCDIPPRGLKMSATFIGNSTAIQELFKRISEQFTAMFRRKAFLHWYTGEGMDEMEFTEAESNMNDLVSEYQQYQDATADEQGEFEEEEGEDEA
T1 sequence (P81947 whole entry): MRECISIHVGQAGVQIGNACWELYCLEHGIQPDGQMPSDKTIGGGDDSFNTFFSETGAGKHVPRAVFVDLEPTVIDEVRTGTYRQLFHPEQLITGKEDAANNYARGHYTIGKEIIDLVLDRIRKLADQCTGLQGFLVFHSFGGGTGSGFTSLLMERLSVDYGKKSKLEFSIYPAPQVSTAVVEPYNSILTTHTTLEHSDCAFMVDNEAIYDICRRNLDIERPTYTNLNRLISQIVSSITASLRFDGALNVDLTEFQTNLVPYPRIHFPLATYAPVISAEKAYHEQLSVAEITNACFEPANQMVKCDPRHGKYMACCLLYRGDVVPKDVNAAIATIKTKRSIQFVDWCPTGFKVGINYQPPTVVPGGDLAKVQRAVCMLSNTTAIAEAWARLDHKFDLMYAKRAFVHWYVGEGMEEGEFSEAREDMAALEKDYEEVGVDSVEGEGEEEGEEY
Protocol: We evaluated the capacity of the new synthesized compounds to inhibit the polymerization of microtubular protein isolated from calf brains. The assays were performed by taking absorbance measurements to quantify the amount of polymer mass formed in the presence (or absence; negative controls) of the compounds.
Bovine brain tubulin was isolated as previously described by following a modified version of the Shelanski method. The protein was stored at −80 °C, and its concentration was determined by employing the Bradford method before each use. […] Tubulin polymerization, caused when heating the samples, was accompanied by an increase in the absorbance (at 450 nm) of the sample that was monitored by using a Helios α spectrophotometer. […] Measurements were performed in triplicate in two independent experiments using microtubular proteins from different preparations.

[5] = system: HT-29 (colon adenocarcinoma); test: Cell growth inhibition, MTT assay, HT-29, without or with verapamil; type: cell-based, human
Protocol: as §1
Multidrug resistance (MDR) proteins, especially P-glycoprotein (P-gp), are often involved in resistance mechanisms affecting tubulin-binding drugs that are frequently related to the failure of cancer therapies. […] These pumps are also part of the blood–brain barrier.
as §2, §3

[6] = system: HepG2 (hepatocellular carcinoma); test: Cell growth inhibition, MTT assay, HepG2; type: cell-based; conditions: Homo sapiens
Protocol: as §1, §2, §3

[7] = system: HeLa (cervix epithelioid carcinoma); test: Cell growth inhibition, MTT assay, HeLa; type: cell-based; conditions: Homo sapiens
Protocol: as §1, §2, §3

[8] = system: MCF7 (breast adenocarcinoma); test: Cell growth inhibition, MTT assay, MCF7; type: cell-based; conditions: Homo sapiens
Protocol: as §1, §2, §3

[9] = Aqueous solubility, shake-flask method, phosphate buffer pH 7.4; type: physicochemical; conditions: thermodynamic from solid, phosphate buffer pH 7.4, shake-flask, mean ± SD of three experiments
Protocol: The aqueous solubility of tetrazole derivatives was determined by the shaking flask methodology in phosphate buffer at pH 7.4, microfiltration, and quantification of the saturated solutions via UV spectroscopy. […] The introduction of polar groups on the 3-indole position was favorable since the most soluble compounds were the oximes 16–19 (38–53 µg/mL), followed by the carbaldehyde series 12–15 (33–45 µg/mL), and the carbonitrile derivatives (25–40 µg/mL), whereas the unsubstituted indoles 8–11 were the least soluble series (19–35 µg/mL).
The aqueous solubility of the compounds was determined using the saturation shake-flask method. First, calibration lines at the maximum wavelength of absorbance were determined for each compound. Then, 5 mg of each compound was suspended in 500 µL of pH 7.4 buffer, and the resulting mixture was shaken for 72 h at room temperature and filtrated over a […] filter to remove the insoluble fraction. The concentration of the compound in the supernatant (saturated solution) was determined by measuring UV absorbance at the maximum wavelength of absorbance and interpolation in the calibration line. A Helios Alfa Spectrophotometer was used for the UV measurements. The aqueous solubility values are given as the average of three independent experiments.

U87 MG (glioblastoma) = test: Cell growth inhibition, MTT assay, U87 MG; type: cell-based; conditions: Homo sapiens, U-87 MG
Protocol: as §1, §2, §3

[10] = HCT-8, 72 h after drug exposure
[11] = HEK293, 72 h, non-tumorigenic cell line
[12] = HEK293, heading: IC50 HEK-293, mean ± SD, Table S1, non-tumorigenic cell line
[13] = Homo sapiens, HT-29, 72 h after drug exposure
[14] = Homo sapiens, HT-29, mean ± SD, Table S1
[15] = mean ± SD, Table S1, in the presence of verapamil (10 µM)

Compound	IC50 ([1]; 72 h, 72 h after drug exposure)	IC50 ([1]; mean ± SD, Table S1)	IC50 [2, 10]	IC50 [3, 11]	IC50 [3, 12]	IC50 [4]	IC50 [5, 13]	IC50 [5, 14]	IC50 [5, 15]	IC50 ([6]; 72 h after drug exposure)	IC50 ([6]; mean ± SD, Table S1)	IC50 ([7]; 72 h after drug exposure)	IC50 ([7]; mean ± SD, Table S1)	IC50 ([8]; 72 h after drug exposure)	IC50 ([8]; mean ± SD, Table S1)	solubility at 72 h [9]	IC50 (U87 MG (glioblastoma); 72 h after drug exposure)	IC50 (U87 MG (glioblastoma); mean ± SD, Table S1)	IC50 ([2]; HCT-8, mean ± SD, Table S1)
Cn1cc(C#N)c2cc(-n3nnnc3-c3cc(Cl)nc(Cl)c3)ccc21 [Compound 20, 5-(5-(2,6-dichloropyridin-4-yl)-1H-tetrazol-1-yl)-1-methyl-1H-indole-3-carbonitrile]	555 nM	555.4 ± 4.2 nM	628 nM	> 10000 nM	> 10000 nM	6200 ± 300 nM	679 nM	679.4 ± 4 nM	682.3 ± 6.3 nM	634 nM	634.5 ± 5.6 nM	625 nM	625.4 ± 4.2 nM	631 nM	631.4 ± 4.9 nM	25.3 ± 0.1 µg/mL (≈ 68.3 µM)	522 nM	522.1 ± 3.1 nM	
COc1cc(-c2nnnn2-c2ccc3c(c2)c(C#N)cn3C)cc(Cl)n1 [Compound 21, 5-(5-(2-chloro-6-methoxypyridin-4-yl)-1H-tetrazol-1-yl)-1-methyl-1H-indole-3-carbonitrile]	689 nM	689 ± 7.5 nM	705 nM	> 10000 nM	> 10000 nM	6900 ± 300 nM	749 nM	749.5 ± 5.1 nM	756.2 ± 5.6 nM	740 nM	740.3 ± 6.4 nM	722 nM	722.1 ± 5 nM	701 nM	701.5 ± 5.2 nM	39.7 ± 0.4 µg/mL (≈ 109 µM)	634 nM		705.4 ± 4.9 nM
CSc1cc(-c2nnnn2-c2ccc3c(c2)c(C#N)cn3C)cc(Cl)n1 [Compound 22, 5-(5-(2-chloro-6-(methylsulfanyl)pyridin-4-yl)-1H-tetrazol-1-yl)-1-methyl-1H-indole-3-carbonitrile]	359 nM	359 ± 3.9 nM	335 nM	> 10000 nM	> 10000 nM	4600 ± 200 nM	355 nM	355 ± 3.9 nM	357 ± 3.9 nM	327 nM	327.3 ± 2.8 nM	341 nM	341.2 ± 2.8 nM	329 nM		31.2 ± 0.3 µg/mL (≈ 81.7 µM)	312 nM	312.3 ± 2.6 nM	335.3 ± 3.3 nM
CSc1cc(-c2nnnn2-c2ccc3c(c2)c(C#N)cn3C)cc(SC)n1 [Compound 23, 5-(5-(2,6-bis(methylsulfanyl)pyridin-4-yl)-1H-tetrazol-1-yl)-1-methyl-1H-indole-3-carbonitrile]	865 nM	865.2 ± 7.2 nM	822 nM	> 10000 nM	> 10000 nM	7900 ± 200 nM	929 nM	929.1 ± 7.8 nM	927.5 ± 7.4 nM	877 nM	877.2 ± 5.9 nM	841 nM	841.1 ± 6.1 nM	963 nM	963.3 ± 7.1 nM	34.1 ± 0.3 µg/mL (≈ 86.7 µM)	831 nM	831.2 ± 4.8 nM	822.3 ± 6.7 nM
